Here are results for 4 compounds from patent US11007192B2, “Use of 5-amino-2,3-dihydro-1,4-phthalazinedione in the treatment of chronic progressive multiple sclerosis” (METRIOPHARM AG, priority 2016, dated 2021).

Structures are written as SMILES.

Series [1] deals with PPMS or SPMS. As to conditions: five years (60 months) after start; 200 mg then 300 mg twice a day; baseline EDSS 4.0.
Method: EDSS determination is then performed every 6 months. […] Thus, the dosage is increased to 300 mg twice a day. […] No dosage adjustment is necessary. […] The next treatment round might vary in dosages used and duration of the treatments depending on disease progression.
In series [2] the test system is TNFalpha. The conditions noted are these: add on to standard therapy, acute phase RRMS patients; cited from earlier work.
In series [3] the test system is neuronal damage. The conditions noted are these: low concentrations in vitro; cited from earlier work.
The subject of series [4] is inflammatory cytokines. The conditions noted are these: mouse, in vivo. As for the experimental part:
(§1) Form II has earlier been tested for its effects on circulating levels of TNF-alpha and IL-6 2 and 4 hours after administration of a sublethal dose of LPS in CD1 mice. Therefore, Form II was administered i.p. at the dose of 0.5, 1.5 and 15.0 mg/kg 15 minutes before LPS challenge.

For series [5], the system named is adjuvant induced arthritis. As to conditions: rat, in vivo.
Method: Rats were evaluated for arthritis daily by an observer unaware of the treatment according to a macroscopic scoring system. An arthritis index was calculated for each rat by summing the scores for the individual paws.
In series [6] the test system is IL-6. The conditions noted are these: mouse, in vivo. As for the experimental part: as §1
The test system of series [7] is TNF-alpha. The conditions noted are these: mouse, in vivo. The procedure:
as §1

The conditions of series [8]: depending on compound, dosage and formulation; cited from earlier work.

In the case of `Nc1cccc2c(=O)[nH][nH]c(=O)c12.[Na]` [5-amino-2,3-dihydro-1,4-phthalazinedione sodium salt], the disability progression in series [1] was found to be 0.5 EDSS points. The “downregulation of TNFalpha” value in series [2] is on record as “promising”. The “neuronal damage in neurodegenerative diseases” value in series [3] is “prevent neuronal damage”.
`Nc1cccc2c(=O)[nH][nH]c(=O)c12.[Na]` [Form I, 5-amino-2,3-dihydro-1,4-phthalazinedione sodium salt] had an effective dosage confirmed in series [4] (ip) of 0.5 mg/kg. For the same compound, in series [4] (po), the “effect when applied orally” value is “there was an effect”. In addition, in series [5], the arthritic score entry was “significantly reduced” and the most effective dose entry was “medium”. The “cumulative score of the disease” value in series [5] (ip, 1 mg/kg) is “reduce significantly”.
As for `Nc1cccc2c(=O)[nH][nH]c(=O)c12.[Na]` [Form II, 5-amino-2,3-dihydro-1,4-phthalazinedione sodium salt], in series [6], the “Downregulation of IL-6 compared to vehicle” value is on record as “significant”, the “Downregulation of IL-6 significant compared to vehicle” value is recorded as “not” and the “dose with best efficacy in down-regulation of IL-6” value amounted to 0.5 mg/kg. Besides, in series [7], the “Downregulation of TNF-alpha compared to vehicle” value is reported as “significant”, the “Downregulation of TNF-alpha significant compared to vehicle” value is recorded as “not” and the “dose with best efficacy in down-regulation of TNF-alpha” value is 0.5 mg/kg. For the same compound, the “blood levels of inflammatory cytokines provoked by sublethal dose of LPS” value in series [4] is on record as “significantly reduced”.
Take `Nc1cccc2c(=O)[nH][nH]c(=O)c12` [5-amino-2,3-dihydro-1,4-phthalazinedione]: the half-life result in series [8] was “several hours”.
